From PMC9257522, “Machine Learning for Discovery of New ADORA Modulators” (Frontiers in Pharmacology, 2022)
Where a name gives a salt, the structure may show the parent alone.

Assays:
human A1AR [1] = test system: T1, human A1AR; assay: A1AR cAMP assay, HEK293 A1AR Nomad cell line (Innoprot), agonist mode; assay type: cell-based; conditions: compounds at 10 µM, normalized to 10 µM NECA (100%) and vehicle DMSO (0%)
T1 construct: host or cells: HEK293 A1AR Nomad cell line
Description: For screening of the initial compounds predicted by machine learning models to activate A1AR receptor, we used the HEK293 A1AR Nomad cell line, which consists of HEK293 cells stably expressing human A1AR with no tag. This cell line has been designed to assay compounds or analyze their capability to modulate the A1AR. When the agonist binds to A1AR in this engineered cell line a Go protein is activated, which in turn, triggers a cellular response mediated by cAMP inhibition. This cellular response can be measured by quantifying the increase in fluorescence intensity and its cellular distribution. An agonist assay was performed for 29 compounds (predicted to be active by the machine learning model) in the human recombinant HEK293 A1AR Nomad cell line using a fluorescence-based assay. An agonist effect of the compounds was measured by quantifying the changes in the fluorescence emission cAMP Nomad biosensor, this elevation of fluorescence was analyzed using a plate reader Synergy 2 (Biotek, Winooski, VT). The error bars represent the standard deviation among the three replicate wells. The 29 compounds were tested at 10 μM using nonselective AR agonist adenosine-5′-N-ethyluronamide (NECA) at 10 μM as a reference.

A2AAR = conditions: read-out: Ki, A2AAR; A2AAR antagonist; quoted without method, no reference given; cited from earlier work
human A1AR [2] = test system: T1, human A1AR; assay: Radioligand displacement binding, [3H]DPCPX, HEK293 membranes; conditions: mean ± standard error, three independent experiments
Procedure: (§1) HEK293 cells stably expressing the human A1AR, A2AAR, A3AR were cultured in DMEM supplemented with 10% fetal bovine serum, 100 Units/ml penicillin, 100 µg/ml streptomycin, and 2 µmol/ml glutamine. To prepare cell membranes, cells were detached from culture plates by scraping into cold PBS and centrifuged at 250 g for 5 min. The pellets were resuspended in ice-cold PBS buffer (pH 7.4) and then homogenized. After homogenization and suspension, cells were centrifuged at 1,000 g for 10 min, and the pellet was discarded. The suspension was then re-centrifuged at 20,000 g for 60 min at 4°C. […] The aliquots of membrane preparations were stored at −80°C until the binding experiments. For displacement binding assays, membrane preparations (20 µg proteins/tube) were incubated at 25°C for 60 min with a final concentration of [^3H]DPCPX (0.5 nM), [^3H]ZM241385 (1.0 nM), […] [^125I]I-AB-MECA (0.1 nM) for A1AR, A2AAR, A3AR, respectively, in a mixture containing 50 µl of increasing concentrations of a test ligand in a total assay volume of 200 µl of 50 mM Tris HCl, pH 7.4, containing 10 mM MgCl2. Nonspecific binding was determined using 100 µM of XAC. The reaction was terminated by filtration with GF/B filters using a Brandel (Gaithersburg, MD) 24-channel harvester. Filters were placed in scintillation vials containing 5 ml of Hydrofluor scintillation buffer (National Diagnostics, Atlanta, GA) and counted using a Tricarb 2810TR liquid scintillation counter (PerkinElmer, Waltham, MA).

human A2AAR [3] = target: T2, human A2AAR (Homo sapiens, UniProt P29274); assay: Radioligand displacement binding, [3H]ZM241385, HEK293 membranes; conditions: mean ± standard error, three independent experiments
T2 construct: expressed in transfected cells; host or cells: HEK293
T2 sequence (P29274 whole entry): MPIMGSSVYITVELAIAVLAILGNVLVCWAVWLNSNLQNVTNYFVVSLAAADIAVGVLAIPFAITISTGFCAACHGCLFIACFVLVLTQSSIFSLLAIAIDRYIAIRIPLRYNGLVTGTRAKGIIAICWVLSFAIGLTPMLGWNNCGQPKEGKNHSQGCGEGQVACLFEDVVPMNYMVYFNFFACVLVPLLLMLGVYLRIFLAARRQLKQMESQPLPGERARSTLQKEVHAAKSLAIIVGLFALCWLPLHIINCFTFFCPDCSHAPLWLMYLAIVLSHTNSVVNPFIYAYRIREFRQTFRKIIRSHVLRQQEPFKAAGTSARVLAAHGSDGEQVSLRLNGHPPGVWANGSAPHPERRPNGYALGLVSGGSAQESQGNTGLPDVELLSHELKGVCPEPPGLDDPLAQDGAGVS
Procedure: as §1

human A2BAR = assay: Radioligand displacement binding, [3H]DPCPX
human A3AR = target: T3, human A3AR (Homo sapiens, UniProt P0DMS8); assay: Radioligand displacement binding, [125I]I-AB-MECA, HEK293 membranes; conditions: mean ± standard error, three independent experiments
T3 sequence (P0DMS8 1-318): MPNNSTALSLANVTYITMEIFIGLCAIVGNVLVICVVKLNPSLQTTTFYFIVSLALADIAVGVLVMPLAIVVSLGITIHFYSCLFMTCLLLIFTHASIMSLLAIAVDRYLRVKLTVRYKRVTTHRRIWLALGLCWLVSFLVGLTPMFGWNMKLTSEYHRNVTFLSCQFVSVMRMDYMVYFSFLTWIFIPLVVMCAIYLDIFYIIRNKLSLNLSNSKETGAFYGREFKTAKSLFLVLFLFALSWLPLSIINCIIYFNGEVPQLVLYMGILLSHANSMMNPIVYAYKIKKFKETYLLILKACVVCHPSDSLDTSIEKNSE
Procedure: as §1

A1AR = test system: T4, A1AR; assay: cAMP assay in AR-expressing HEK293 cells (ALPHAScreen), A1AR; assay type: cell-based, human; conditions: A1AR-expressing HEK cells; cAMP inhibition, Cl-ENBA reference full agonist
T4 construct: expressed in transfected cells; host or cells: HEK293
Procedure: (§2) HEK293 cells were grown in 96-well plates in DMEM supplemented with 10% fetal bovine serum, 100 Units/ml penicillin, 100 µg/ml streptomycin, and 2 µmol/ml glutamine. […] For A1AR and A3AR, after incubation with agonists for 20 min, forskolin (10 µM) was added and the mixture incubated for an additional 15 min. The reaction was terminated upon removal of the supernatant and addition of 100 µl Tween-20 (0.3%). Intracellular cAMP levels were measured with an ALPHAScreen cAMP assay kit as instructed by the manufacturer (PerkinElmer).

human A2AAR [4] = target: T2, human A2AAR; assay: cAMP assay in AR-expressing HEK293 cells (ALPHAScreen), A2AAR; assay type: cell-based; conditions: A2AAR-expressing HEK293 cells
Procedure: as §2

Compound | normalized activity with respect to the positive control (human A1AR [1]) [%] | Ki (A2AAR) [µM] | Inhibition of specific binding, % inhibition at 100 µM, A1 ([3H]DPCPX) (human A1AR [2]) [%] | Ki, A2A ([3H]ZM241385) (human A2AAR [3]) | Ki (human A2AAR [3]; read-out: Ki, A2A ([3H]ZM241385)) [µM] | Inhibition of specific binding, % inhibition at 100 µM, A2B ([3H]DPCPX) (human A2BAR) [%] | Ki, A3 ([125I]I-AB-MECA) (human A3AR) | Ki (human A3AR; read-out: Ki, A3 ([125I]I-AB-MECA)) [µM] | cAMP, A1AR agonist activity (A1AR) | cAMP, A2AAR activity (stimulation of cAMP) (human A2AAR [4]) | cAMP, A2AAR activity (stimulation of cAMP) (human A2AAR [4]; listed as febuxostat)
CCN(CC)CCOc1ccc2c(c1)C(=O)c1cc(OCCN(CC)CC)ccc1-2 [Tilorone Hydrochloride] | 55.9 | – | – | – | – | – | – | – | – | – | –
CCn1c(=O)c2c(nc(/C=C/c3ccc(OC)c(OC)c3)n2C)n(CC)c1=O [istradefylline, Istradefylline] | – | 0.0022 | – | – | – | – | – | – | – | – | –
Cc1nc(-c2ccc(OCC(C)C)c(C#N)c2)sc1C(=O)O [Febuxostat] | 94.53 | – | 29.8 ± 5.2 | in the µM range | 22.9 ± 4.3 | <10 | in the µM range | 67.3 ± 45.7 | Not active | Not active | not
